TGI and GI50 data for 28 compounds are collected here from PubChem BioAssay (NCI).

The structures appear in SMILES notation. Where “and” joins values, the source holds several entries; their conditions need not be identical. Equal values may be shown once.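 48-hour exposure; five concentrations; linearly interpolated endpoints. GI50 marks 50% less growth. TGI marks complete inhibition of growth.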

Holding throughout (assay): DTP human tumour cell line panel, 48 h
The test system of test [1] is HCC-2998 colon.
In test [2] the test system is HCT-116 colon.
Test [3] deals with MDA-N.
For test [4], the system named is OVCAR-3 ovarian.
Test [5] deals with SK-MEL-2 melanoma.
Test [6] deals with SK-MEL-28 melanoma.
Test [7] relates to SNB-75 CNS.
The test system of test [8] is UACC-257 melanoma.
Test [9] relates to UACC-62 melanoma.
For test [10], the system named is HS 578T breast.
For test [11], the system named is SF-268 CNS.

What is called TGI is the concentration at which net growth stops. Higher therefore signals less potent growth arrest. Turning to `CSc1nncc2[nH]c(C)nc12`, the TGI in [1], in [2], in test [3], in test [4], in test [5] and in test [6] was greater than 100 µM each time. Moreover, the TGI in test [7], in test [8] and in test [9] was greater than 100 µM throughout.
Consider `O=C(NCCCN(CCCCN(CCCNC(=O)C(F)(F)F)CCCc1ccccc1)CCCc1ccccc1)C(F)(F)F`, for which the TGI in test [1] turned out to be 3.27 µM; in test [2] it was 5.9 µM; in test [10] it was 4.2 µM; in [3], 3.04 µM; in [11], 3.3 µM; in test [6], 3.16 µM. For the same compound, the results for the TGI in [7], in test [8] and in test [9] were 2.56 µM, 3.32 µM and 3.36 µM, respectively.
`O=C(NS(=O)(=O)OCC(Cl)(Cl)Cl)SCCC(F)(F)C(F)(F)C(F)(F)C(F)(F)C(F)(F)C(F)(F)F`: the TGI in test [2] is 40.8 µM; in [10], 42.1 µM; in test [4] it was 48.3 µM; in test [11], greater than 100 µM; in test [5] it was 66.8 µM; in [6] it was 55.7 µM. In addition, the TGI in test [7] is 64.6 µM; in test [8] it was greater than 100 µM; in [9], 40.6 µM.
In the case of `COc1ccc(C(=O)/C=C/c2ccncc2)cc1OC`, the TGI in [2] came out at 18.9 µM; in test [10], 36.7 µM; in [3], 26.2 µM; in test [4], 18.6 µM; in test [11], 30.5 µM; in test [5], 30.8 µM. Besides, the TGI in test [6] is 31.7 µM; in test [7], 26.3 µM; in test [8], 25.5 µM; in test [9] it was 30 µM.
Take `CC1(C)OC2C(O)CN3CCS[C@H]3C2O1` (stereo not given in full): the TGI in [1], in [2], in [10], in test [4], in test [11] and in [5] was greater than 100 µM throughout. Also, the TGI in test [6], in [7], in [8] and in [9] was greater than 100 µM each time.
Take `O=C(O)c1cccnc1`: the TGI in [1], in test [2], in test [10], in [3], in test [4] and in test [11] was greater than 100 µM each time. Moreover, the TGI in test [6], in [7] and in [8] was greater than 100 µM throughout.
As for `CC(C)=CCc1c(O)ccc2ccc(=O)oc12`, the concentration for total growth inhibition (TGI) in test [1], in [2], in test [4], in [11], in test [5] and in test [6] was greater than 100 µM throughout. For the same compound, the TGI in test [7] is greater than 100 µM; in [8], 84 µM; in test [9], greater than 100 µM.
Take `COc1ccc(N2C(=O)CS(=O)(=O)C2c2cccc(Oc3ccccc3)c2)cc1` (stereo not given): the TGI in test [2] is 5.88 µM; in test [10], 28.5 µM; in test [4], greater than 100 µM; in test [11], 38.4 µM; in test [5] it was 15.9 µM; in [6], greater than 100 µM. Also, the TGI in test [7] is 45.2 µM; in test [8] it was 10.9 µM; in test [9], 6.25 µM.
`O=C(O)CCN(CCC(=O)O)c1ccc(/C=C2\SC(=S)NC2=O)cc1`: the TGI in [1], in [2], in test [10], in test [4], in test [11] and in [5] was greater than 100 µM throughout. For the same compound, the TGI in test [6], in test [7], in test [8] and in [9] was greater than 100 µM throughout.
As for `C#CCN(CC#C)C(=O)C(=O)c1c[nH]c2ccc(OC)cc12`, the TGI was 31 µM in test [1]; 36.1 µM in test [2]; 37.6 µM in [10]; greater than 100 µM in [11]; 31 µM in test [6]; 55.1 µM in test [7]. The TGI stood at 34 µM in test [8] and 42.7 µM in test [9].
As to `COc1cc(/C=C/C(=O)O)ccc1C(=O)OCc1ccccc1`, the TGI in [1], in test [2], in test [4], in [11], in test [5] and in [6] was greater than 100 µM in each case. The TGI in test [7], in test [8] and in test [9] was greater than 100 µM each time.
`COC(=O)C1C=CN(N(C)C)C2=C1C(=O)c1c(O)cccc1C2=O` (stereo not given): the TGI in test [1] came out at 3.67 µM; in test [2], 5.79 µM; in test [10], 7.58 µM; in test [4], 5.82 µM; in [11], 17.3 µM; in test [5] it was 7.81 µM. Also, the TGI in test [6] worked out at 3.87 µM; in test [7] it was 3.19 µM; in test [8] it was 2.8 µM; in test [9], 2.37 µM.
In the case of `CC(C)(C)c1cc(C(CO)OCCOCCO)cc(C(C)(C)C)c1O` (stereo not given), the TGI in [2], in test [10], in test [3], in test [4], in test [11] and in test [5] was greater than 100 µM in each case. Also, the TGI in [6], in [7], in test [8] and in [9] was greater than 100 µM throughout.
Consider `COc1ccc(-c2nc(SCC(=O)N/N=C/c3ccc(O)c(OC)c3)[nH]c2-c2ccc(OC)cc2)cc1`, for which the TGI in [1] is 32.3 µM; in test [2], 33.3 µM; in [3], 52.3 µM; in test [4], 48 µM; in [11], greater than 100 µM; in test [5] it was 33.5 µM. Moreover, the TGI was 74.8 µM in test [6], greater than 100 µM in test [7], 69.5 µM in test [8] and 27.4 µM in test [9].
Consider `Cc1cc(OCc2nnc3n2N=C(c2cc(F)c(Cl)cc2Cl)/C(=C/c2ccc(Cl)cc2)S3)ccc1Cl`, for which the TGI in test [1] was 40.3 µM; in test [2], 66.9 µM; in [10] it was 46.1 µM; in test [3] it was greater than 100 µM; in test [4], greater than 100 µM; in test [11], 51.4 µM. Besides, the TGI in [5] is greater than 100 µM; in test [6] it was 54.9 µM; in test [8], greater than 100 µM.
The GI50 is the concentration that inhibits growth by half. Consider `CC12CCC3C(CCC4=CC(O)CCC43C=O)C1(O)CCC2c1ccc(=O)oc1` (stereo not given), for which the GI50 in test [1] was 0.0591 µM; in test [2], 0.00453 µM; in [11] it was 0.00153 µM; in test [5] it was 0.05 µM; in [6], 0.00766 µM; in test [7] it was 0.05 µM. Further, the GI50 is 0.05 µM in test [8] and 0.00932 µM in test [9]. The TGI in test [1] was 0.0665 µM and 0.22 µM; in test [2], 0.0327 µM and 0.0583 µM; in [4], 0.0153 µM; in test [11], 0.0154 µM; in test [5], 0.0483 µM and 0.0815 µM; in test [6], 0.14 µM and 0.104 µM. Besides, the TGI in test [7] was 0.0544 µM and 0.0523 µM; in test [9], 0.0329 µM and 0.0521 µM.
For the compound `CC(=O)Nc1ccc(-c2nc3ccccc3s2)cc1`, the TGI in test [1], in test [2], in test [10], in test [11], in [5] and in test [6] was greater than 100 µM in each case. For the same compound, the values for the TGI in test [7], in test [8] and in test [9] were 90.9 µM, greater than 100 µM and greater than 100 µM, respectively.
On to `CC(C)C1=C(Cc2ccccc2)C(=O)O/C1=C\c1cc(Cl)c(O)c(Cl)c1`, for which the TGI worked out at 42.3 µM in test [1]; 34.8 µM in test [2]; 67.7 µM in test [10]; 37.4 µM in test [3]; 27.2 µM in test [4]; 48.2 µM in [11]. Further, the TGI in test [6] turned out to be 35.9 µM; in [7], 36.8 µM; in [8], 32.2 µM; in test [9], 36 µM.
Consider `CC(C)=C1C(=O)C[C@]2(C)C[C@H]3/C(=C(/C)CCC12)CC[C@@]3(C)O` (stereo not given in full), for which the TGI in test [1], in test [2], in test [10], in test [4], in test [11] and in test [5] was greater than 50 µM each time. The TGI in test [6], in [7], in test [8] and in [9] was greater than 50 µM throughout.
As to `O=C1NN=C2C=C(c3ccc(Cl)cc3)CC(c3cccc(Cl)c3)C12` (stereo not given), the TGI in test [1] is 33.5 µM; in test [2], 41 µM; in test [10], 55 µM; in [3] it was 65.3 µM; in [4], greater than 100 µM; in test [11] it was greater than 100 µM. In addition, the results for the TGI in test [5], in [8] and in [9] were 45.3 µM, 48.5 µM and 33.6 µM, respectively.
Turning to `CCCC(O)C(NC(=O)CCl)C(=O)O` (stereo not given), the TGI in test [1], in test [2], in [4], in test [11], in test [5] and in [6] was greater than 100 µM in each case. Further, the TGI in test [7], in [8] and in [9] was greater than 100 µM each time.
With `Nc1nc2c(ncn2Cc2ccc(CO)cc2)c(=O)[nH]1`, the TGI in [2], in test [10], in test [4], in [11], in [5] and in test [6] was greater than 100 µM in each case. Besides, the TGI in test [7], in test [8] and in test [9] was greater than 100 µM in each case.
On to `O=C1C[C@H]2[C@@H](O1)[C@@H](O)CN1C(=O)c3ccccc3[C@H]21`, for which the TGI in test [1], in test [2], in [3], in [11], in test [5] and in test [6] was greater than 100 µM throughout. Besides, the TGI in [7], in [8] and in test [9] was greater than 100 µM throughout.
Regarding `CCOC(=O)c1ccc(NC(=O)O/N=C(/Cl)CCl)cc1`, the TGI in [2], in [10], in [3], in [4], in [11] and in test [5] was greater than 100 µM each time. Moreover, the TGI in [6], in [7] and in test [8] was greater than 100 µM each time.
For `CC(C)(C)c1cc(C(=O)/C=C/C=C/c2ccccc2)cc(C(C)(C)C)c1O`, the TGI was 28.2 µM in [1]; 44.9 µM in [2]; greater than 100 µM in test [10]; greater than 94.1 µM in [4]; greater than 74 µM in test [11]; 34.5 µM in test [5]. In addition, the TGI was greater than 100 µM in [6], 67.2 µM in test [7], 25.4 µM in [8] and greater than 71.4 µM in [9].
For the compound `CC(C)(C)[Si](C)(C)OC1/C(=C/C#N)C(n2ccc(=O)[nH]c2=O)OC1CO` (stereo not given), the TGI in test [2], in [3], in test [4], in [11], in [5] and in test [6] was greater than 100 µM in each case. The TGI in test [9] was greater than 100 µM.
Regarding `CC[C@]1(Cc2ccc(OC)c(OC)c2)[C@@H]2C[C@@H](C3OCCO3)ON2O[C@H](OC2CCCC2(c2ccccc2)c2ccccc2)[C@@H]1OC(C)=O` (stereo not given in full), the TGI in test [2] was 50.9 µM; in test [3] it was greater than 100 µM; in [4], 25.4 µM; in [11], 44.1 µM; in [5], 29.5 µM; in test [6] it was 47.3 µM. The TGI in test [7] was 46.3 µM; in test [8], 43.9 µM; in test [9], greater than 100 µM.
Regarding `CC(=O)Nc1ccc2cc(C)c(=O)[nH]c2n1`, the TGI in [2], in [10], in [3], in [11], in [5] and in [6] was greater than 100 µM throughout. Further, the TGI in [7], in test [8] and in test [9] was greater than 100 µM each time.
